Values of other authors in paper PMC8198792, “Prediction of Anticancer Peptides with High Efficacy and Low Toxicity by Hybrid Model Based on 3D Structure of Peptides” (International Journal of Molecular Sciences, 2021).
Like-named read-outs stand apart in the source and are kept apart here.

What was measured:
[1] = test system: many types of cells, including non-cancer cells; conditions: toxic peptides dataset TD2; class label 1 (toxic, positive set) or 0 (non-toxic AMP, negative set); ref SATPdb; cited from earlier work
cancer cell lines = test system: cancer cell lines; set-up: method as in 6 sources, ref CancerPPD [45] and SATPdb ||| ref CancerPPD/SATPdb ||| ref CancerPPD, SATPdb, Swissprot (PDB) ||| ref CancerPPD/SATPdb/Swissprot(PDB) ||| ref CancerPPD / SATPdb ||| ...; conditions: cited from earlier work
Text: Supplement ijms-22-05630-s001.zip/ACPs(seguence).xlsx, sheet "D1" | column: Activity || Supplement ijms-22-05630-s001.zip/ACPs(seguence).xlsx, sheet "D2" | column: Activity || Supplement ijms-22-05630-s001.zip/ACPs(seguence).xlsx, sheet "D3" | column: Activity || (+ 2 further places)

erythrocytes = conditions: cited from earlier work
Text: Supplement ijms-22-05630-s001.zip/Hemloytic Peptides(seguence).xlsx, sheet "HD1" | column: Activity || Supplement ijms-22-05630-s001.zip/Hemloytic Peptides(seguence).xlsx, sheet "HD2" | column: Activity || Supplement ijms-22-05630-s001.zip/Hemloytic Peptides(seguence).xlsx, sheet "HD3" | column: Activity

[2] = ACPs dataset D3 (sheet "D3"), label 1 = ACP, 0 = non-ACP, ref CancerPPD/SATPdb
[3] = ACPs dataset D4 (sheet "D4"), label 1 = ACP, 0 = non-ACP, ref CancerPPD / SATPdb
[4] = ACPs dataset D5, sheet "D5", label 1 = ACP, 0 = non-ACP, ref CancerPPD [45] and SATPdb
[5] = Hemolytic peptides dataset HD2, label 1 = hemolytic, 0 = non-hemolytic, ref Hemolytik/SATPdb
[6] = hemolytic peptides dataset HD3, 1 = hemolytic (positive set), 0 = non-hemolytic (negative set), labels taken from databases, ref Hemolytik/SATPdb

In the case of SLSRFLSFLKIVYPPAF [satpdb15130], the Activity [1] is given as 0.

In the case of “RFRLPFRRPPIRIHPPPFYPPFRRFL [satpdb12266]”, the Activity [1] is listed as 1.

For KILRGVSKKIMRTFLRRILTGKK [satpdb23198], the Activity [1] is listed as 1.

In the case of LLGMIPLAISAISSLSKL [satpdb20037], the Activity [1] is given as 1.

In the case of FLSGIVGMLGKLF [satpdb21516], the Activity [1] is given as 1.

In the case of GLLDIVKKVVGAFGSL [satpdb12368], the Activity [1] is given as 0.

For FVQWFSKFLGRIL [satpdb16211], the Activity [1] is listed as 1.

In the case of FIGAILPAIAGLVHGLINR [satpdb19442], the Activity [1] is listed as 1.

For FLGAIAAALPHVINAVTNAL [satpdb16106], the Activity [1] is given as 1.

For KAYSMPRCKYLFRAVLCWL [satpdb15879], the Activity [1] is listed as 0.

For FIGLLISAGKAIHDLIRRRH [satpdb26817], the Activity [1] is given as 1.

In the case of TKPTLLGLPLGAGPAAGPGKR [satpdb17447], the Activity [1] is given as 0.

For ALKAALLAILKIVRVIKK [satpdb15928], the Activity [1] is given as 0.

In the case of GLVTGLLKTAGKLLGDLFGSLTG [satpdb19701], the Activity [1] is listed as 1.

In the case of GLWQKIKNAAGDLASGIVEGIKS [satpdb17290], the Activity [1] is listed as 0.

In the case of GVVDILKGAGKDLLAHLVGKISEKV [satpdb27434], the Activity [1] is given as 1.

For GLFDIIKKVASVIGGL [satpdb15856], the Activity [1] is given as 0.

For NFLGTLINLAKKIM [satpdb14927], the Activity [1] is given as 0.

For FLPAALAGIGGILGKLF [satpdb24046], the Activity [1] is listed as 1.

In the case of GFRKFHKFWA [satpdb14908], the Activity [1] is listed as 0.

In the case of “LALALKHALHKALLLAKHLAHKLALA [satpdb16273]”, the Activity [1] is listed as 0.

For GFGPAFHSVSNFAKKHKTA [satpdb16916], the Activity [1] is given as 0.

In the case of “GLPVCGETCVGGTCNTPGCTCSWPVCTRN [satpdb19932]”, the Activity [1] is listed as 1.

For “RRIPRPILLPWRPPRPIPRPQPQPIPRWL [satpdb15488]”, the Activity [1] is listed as 0.

In the case of FFGWLIKGAIHAGKAIHGLIHRRRH [satpdb28313], the Activity [1] is listed as 1.

In the case of ALYLAIRRR [satpdb16531], the Activity [1] is listed as 0.

For GFKDLLKGAAKALVKTVLF [satpdb25277], the Activity [1] is listed as 1.

In the case of KISKKIMRTFLRRILTGKK [satpdb19592], the Activity [1] is listed as 1.

For GVVTDLLKTAGKLLGNLVGSLSG [satpdb26504], the Activity [1] is listed as 1.

In the case of SAPRGCWTKSYPPKPCK [satpdb28266], the Activity [1] is listed as 1.

For VDIHVWD*GV [satpdb19274], the Activity [1] is listed as 1.

In the case of FQWQRNIRKVR [satpdb14534], the Activity (cancer cell lines; [2]) is listed as 0, the Activity (cancer cell lines; [3]) is listed as 0 and the Activity (cancer cell lines; [4]) is listed as 0. The Activity (erythrocytes) was 0.

For LNWGALLKHLLK [satpdb12233], the Activity (cancer cell lines; [2]) is listed as 0, the Activity (cancer cell lines; [3]) is listed as 0 and the Activity (cancer cell lines; [4]) is listed as 0. For the same substance, the Activity (erythrocytes) was 1.

In the case of DVNDLKNLCAKTHNLLPMCAMF [satpdb13885], the Activity (cancer cell lines; [2]) is given as 0, the Activity (cancer cell lines; [3]) is given as 0 and the Activity (cancer cell lines; [4]) is given as 0. The Activity (erythrocytes) was 0.

In the case of LKWLLKWLL [satpdb12315], the Activity (cancer cell lines; [2]) is listed as 0, the Activity (cancer cell lines; [3]) is listed as 0 and the Activity (cancer cell lines; [4]) is listed as 0. The Activity (erythrocytes; [5]) was 1 and the Activity (erythrocytes; [6]) was 1.

For FLPLIGAVLSGIL [satpdb13723], the Activity (cancer cell lines; [2]) is listed as 0, the Activity (cancer cell lines; [3]) is listed as 0 and the Activity (cancer cell lines; [4]) is listed as 0. The Activity (erythrocytes) was 1.

In the case of GFLSILKKVLAKVMAHMK [satpdb13478], the Activity (cancer cell lines; [2]) is listed as 0, the Activity (cancer cell lines; [3]) is listed as 0 and the Activity (cancer cell lines; [4]) is listed as 0. For the same substance, the Activity (erythrocytes; [5]) was 1 and the Activity (erythrocytes; [6]) was 1.

In the case of “PICKRNGLPVCGETCTLGTCYTQGCTCSW [satpdb10279]”, the Activity (cancer cell lines; ACPs dataset D1, label 1 = ACP, 0 = non-ACP (non-anticancer AMPs from SATPdb), ref CancerPPD/SATPdb) is listed as 0, the Activity (cancer cell lines; ACPs dataset D4 (sheet "D4"), label 1 = ACP (CancerPPD ID), 0 = non-ACP (non-anticancer AMP, SATPdb ID), ref CancerPPD [45] and SATPdb) is listed as 0 and the Activity (erythrocytes; [6]) is listed as 1. For the same substance, the “Activity (dataset HD1, hemolytic 1 / non-hemolytic 0)” value (erythrocytes; natural hemolytic peptide dataset HD1, label collected from databases, ref Hemolytik [49], SATPdb [34]) was 1.

In the case of VKlKVyPLKVKLyP [satpdb13308], the Activity (cancer cell lines; [2]) is listed as 0, the Activity (cancer cell lines; [3]) is listed as 0 and the Activity (cancer cell lines; [4]) is listed as 0. The Activity (erythrocytes) was 1.

For FLSTIWNGIKSLL [satpdb12436], the Activity (cancer cell lines; [2]) is given as 0, the Activity (cancer cell lines; [3]) is given as 0 and the Activity (cancer cell lines; [4]) is given as 0. For the same substance, the Activity (erythrocytes; [5]) was 1 and the Activity (erythrocytes; [6]) was 1.

For FLPAIAGILSQLF [satpdb10431], the Activity (cancer cell lines; ACPs dataset D3 (supplement sheet "D3"), 1 = ACP, 0 = non-ACP, ref CancerPPD [45] and SATPdb) is listed as 0, the Activity (cancer cell lines; [3]) is listed as 0 and the Activity (cancer cell lines; [4]) is listed as 0. For the same substance, the Activity (erythrocytes) was 1.
